Results reported in ChEMBL document CHEMBL1157539, “Thousands of chemical starting points for antimalarial lead identification” (Nature, 2010).

test system: Plasmodium falciparum; assay: GSK_TCMDC: Inhibition of Plasmodium falciparum 3D7 in whole erythrocytes, using parasite LDH activity as an index of growth.; type: functional, organism-based; conditions: Plasmodium falciparum, 3D7

Structure (SMILES) | XC50 [nM]
c1ccc2c(NCCCCCCNc3c4ccccc4nc4ccccc34)c3ccccc3nc2c1 | 753
COc1cc2c(=O)c(Cc3ccc(Cl)cc3)c(C)[nH]c2cc1F | 1160
CCCC(CNCc1ccccc1)CNc1cc(=O)c2ccccc2[nH]1 (configuration not stated) | 1020
O=C(c1ccc([N+](=O)[O-])o1)N1CCN(c2ccccc2)CC1 | 40
Fc1cc(Cl)ccc1Nc1ccnc2cc(-c3ccc(CN4CCOCC4)o3)ccc12 | 639
CCOc1ccc(-c2nonc2NC(=O)c2ccc(OC)cc2)cc1OCC | 822
CN(C)CCOc1cc(NC(=O)Nc2ccc(-c3ccccc3)cc2Cl)ccc1I | 245
CNc1cc(-c2ccc3ccnc(N)c3c2)nc(N)n1 | 119
CN(C)CC(=O)Nc1cccc(Nc2nccc(NCC(O)c3ccccc3)n2)c1 (configuration not stated) | 983
O=C(/C=C/c1ccc(Cl)c(Cl)c1)N1CCC(CCN2CCc3[nH]c4ccccc4c3C2)CC1 | 886
CN(C)c1ccc(N2C(N)=NC(N)=NC23CCCC3)cc1 | 935
COc1ccc2nccc(N3CCC(O)(CCNCc4ccc5c(n4)NC(=O)CS5)CC3)c2n1 | 648
O=C(Nc1ccc(C(=O)Nc2ccc(C3=NCCN3)cc2)cc1)Nc1ccc(C2=NCCN2)cc1 | 180
CC(=O)Nc1cccc(C(=O)Nc2cccc(-c3cccc(-c4nc5cc(F)ccc5[nH]4)c3)c2)c1 | 549
Clc1ccc2c(NN=Cc3cccnc3)ccnc2c1 | 696
COc1ccc(C=NN=c2cc(C)[nH]c3ccccc23)c(OC)c1 | 616
O=C(/C=C/c1ccccc1Cl)Nc1ccc(Br)c(OCCN2CCCCC2)c1 | 168
CC(Cc1ccc(OCCCCOc2ccccc2)cc1)NCCc1ccc(Oc2ccccc2)cc1 (configuration not stated) | 812
Nc1cc(-c2ccc(Br)cc2O)nc2ccccc12 | 619
O=C(C=Cc1ccc(Cl)c(Cl)c1)NCCCCCN1CCC(c2n[nH]c3ccccc23)CC1 | 638
CN1CCN(CCNc2c3ccccc3nc3ccc4ccccc4c23)CC1 | 534
Nc1nc(N)c2c(ccc3[nH]c(-c4ccccc4Cl)nc32)n1 | 231
Cc1cc(N[C@@H](Cc2ccccc2)C(=O)NCCOc2ccccc2)nc(NCCc2ccccc2)n1 | 1030
CN1CC[C@H](N(Cc2ccccc2F)c2ccc(C#N)c(Cl)c2)C1 | 1270

Structure (SMILES) | XC50 [nM]
Cc1cc(NCC2CCN(CC3CCCCC3)C2)nc(Nc2ccc(Br)cc2)n1 (configuration not stated) | 879
O=C(/C=C/c1ccc(Cl)c(Cl)c1)NCCCCCN1CCC(NS(=O)(=O)c2cc(Cl)cc(Cl)c2)CC1 | 1240
CC(=O)c1ccc(NC(=O)Nc2ccc3nccc(N4CCN(C)CC4)c3c2)cc1 | 432
CC1(C)N=C(N)N=C(Nc2ccc(Cl)cc2)N1 | 336
COc1c(C(=O)NC2CCN(Cc3ccccc3)C2)cnc2ccccc12 (configuration not stated) | 956
c1cc(-c2ccc(CNC3CC3)cc2)cc(-c2nc3ccccc3[nH]2)c1 | 1660
FC(F)(F)c1ccc2[nH]ccc(=NN=Cc3cccnc3)c2c1 | 625
CC(C)NCc1cccc(-c2cccc(-c3nc4cc(F)ccc4[nH]3)c2)c1 | 285
Oc1ccc(CCNc2nc(NCc3ccccc3-c3ccc(F)cc3)nc(N3CCNCC3)n2)cc1 | 1070
CCOC(=O)c1ccc(NC(=O)c2ccccc2C(=O)O)cc1 | 922
O=C(Nc1ccc(F)cc1)c1cnc(N2CCN(c3ccncc3)CC2)c(Cl)c1 | 735
O=C(Nc1ccc(-c2csc(-c3nc4ccccc4[nH]3)c2)cc1)Nc1ccc(Cl)c(Cl)c1 | 402
CCCNCc1ccc(-c2ccc(CN(CCOC)C(=O)c3cnc(C)cn3)cc2)nc1 | 1250
CN(C)CCNCc1ccc(-c2ccc3c(Nc4ccc(Cl)cc4F)ccnc3c2)o1 | 208
Nc1cccc(CNCc2cccc(-c3ccc(-c4nc5ccccc5[nH]4)s3)c2)c1 | 604
CN(C)CCN(C)Cc1ccc(-c2ccc(NS(=O)(=O)c3cccc4cccnc34)cc2)cc1 | 864
Cc1[nH]c2ccc(NS(C)(=O)=O)cc2c1C1CCN(CC2CCN(C(=O)/C=C/c3ccc(Cl)c(Cl)c3)CC2)CC1 | 684
O=C(/C=C/c1ccc(Cl)c(Cl)c1)N1CCC(CCN2CCC(c3nc4cc(O)ccc4[nH]3)CC2)CC1 | 344
CCCCCC(C)N/C(=N/c1cccc(Cl)c1Cl)Nc1ccc(C#N)cc1O (configuration not stated) | 805
Cc1cnc(N2CCN(CCCN3CCCC3)CC2)nc1Oc1ccc(-n2ccnc2)cc1 | 898
CCOc1ccc2nc(N(CCCn3ccnc3)C(=O)C=Cc3cccs3)sc2c1 | 777
CCCCCCCN1C2CCC1CC(CCOc1ccnc3ccc(OC)cc13)C2 (configuration not stated) | 389
CC[C@H]1CN2CC[C@H]1C[C@H]2C(O)c1cc(OC)nc2ccccc12 (some centres not stated) | 141
CN1CCN(CCCN(Cc2cccc(-c3ccc(CNCCc4ccccc4)cc3)c2)C(=O)c2cccs2)CC1 | 716

Structure (SMILES) | XC50 [nM]
COc1ccc(-c2ccc(NC(=O)c3cccc(F)c3)cc2)cc1CN1CCCN(C)CC1 | 672
Cc1ccc(Cn2nc(Cl)c(N3CCCNCC3)cc2=O)cc1NC(=O)Nc1ccc(-c2ccccc2)cc1 | 667
O=C(Nc1ccc(C(=O)N2CCN(CCN3CCN(c4cccc(C(F)(F)F)c4)CC3)CC2)cc1)c1ccc(C(F)(F)F)cc1 | 690
CC1CCCN(S(=O)(=O)c2ccc(NC(=O)c3cc(-c4ccccc4O)n[nH]3)cc2)C1 (configuration not stated) | 757
Cc1nnc2c(NC(=O)NC3CCCC3)cc3ccc(-c4cccc(CN(C)C)c4)cc3n12 | 1160
c1ccc(CNCc2ccc(-c3ccc(-c4nc5ccccc5[nH]4)cc3)cc2)cc1 | 338
CC(C)n1ncc2c(C(=O)N3CCCc4ccccc43)cc(-c3ccccc3)nc21 | 601
Cc1nc(C)c(-c2ccc(Sc3ccc(Cl)cc3)cc2)c(O)c1Br | 138
COc1ccccc1Cc1c(C)nc2nc(N)nc(N)c2c1C | 569
N=C(N)Nc1nccc(NCc2ccccc2)n1 | 895
CCNc1cc(C(=O)N[C@@H](Cc2cc(F)cc(F)c2)[C@H](O)CNCc2cccc(C(F)(F)F)c2)cc(N2CCCCS2(=O)=O)c1 | 613
CCCS(=O)(=O)N1CCC(CO)(Cc2ccccc2C(F)(F)F)CC1 | 885
COc1cc(-c2nc(-c3ccncc3)c(-c3ccc4c(c3)CCC4=NO)[nH]2)ccc1OCCN1CCCCC1 | 789
Cc1ccc2c(=NN=CC=Cc3ccccc3)cc(C)[nH]c2c1 | 1120
CC(C)(C)c1ccc(NC(=O)N[C@@H]2CCN(c3ccnc4ccccc34)C2)cc1 | 350
COc1cccc(CNC(=O)c2cc(CNCc3ccccc3)ccc2-c2cccc(CNCc3ccc(-c4ccccc4)cc3)c2)c1 | 847
O=C(Nc1ccc(Cl)cc1)Nc1ccc(OCC(O)CN2CCCCC2)cc1 (configuration not stated) | 1160
CC(C)N1CCN(c2ccc(OCCCN3CCN(c4cccc(Cl)c4Cl)CC3)c(C(F)(F)F)c2)CC1 | 810
C=CCc1cc(C2CCN(CCCCNC(=O)c3ccc(-c4ccc(C#N)cc4)cc3)CC2)c(OCC(N)=O)c2c1CCCC2 | 799
COC(=O)c1c(C#N)c(OC)cc(O)c1CSC[C@H](Nc1nc(-c2ccc([N+](=O)[O-])cc2)cs1)C(=O)NCCN1CCCCC1 | 1060
O=C(NC1CCN(CCN2CCc3ccccc3CC2)CC1)c1ccc(-c2ccc(C(F)(F)F)cc2)cc1 | 935
CC[C@H]1CN(C/C=C/c2ccc(OC)cc2)CC[C@H]1CCCc1ccnc2ccc(O)cc12 | 657
CCC(C)CN1CCN(c2ccc(NC(=O)c3cccs3)cc2)CC1C (configuration not stated) | 655
Cc1cccc2nc(-c3ccc(-c4cccc(NCc5cn6cccnc6n5)c4)cc3)[nH]c12 | 787
